The values that follow come from patent US20040186122A1, “Method of treating acute pain with a unitary dosage form comprising ibuprofin and oxycodone” (Forest Laboratories, Inc., priority 2002, published 2004).

Data set [1] concerns Caco-2 cell monolayers. The experiment in a line: Membrane integrity (TEER) of Caco-2 cell monolayers before and after transport. It is filed as cell-based. Conditions: at the concentrations used; TEER 980-1002 Ωcm^2 before, not changed after transport. Here is the method:
Each treatment was performed in triplicate. […] Samples then underwent LC/MS/MS analysis.
For orientation: Caco-2 cells form a polarised layer with tight junctions and transporters.

For data set [2] the following is noted: cited from earlier work.
The conditions of data set [3]: tertiary amine; cited from earlier work.
Data set [4] in a line: Transport (Papp) across Caco-2 cell monolayers, AP to BL. As to conditions: human, Caco-2, Apparent permeability coefficients of oxycodone (±standard deviation) (n = 3); for Papp A→B at 20 min, 0.02 mg/ml: after 20 minutes; for Papp A→B at 80 min, 0.02 mg/ml: oxycodone 0.02 mg/ml, AP-to-BL.
Data set [5] concerns Caco-2 cell monolayers. The description is as above. Conditions: after the initial 20-minute transport period.
The nature of a further data set: in vitro. As to conditions: human, Caco-2, Apparent permeability coefficients of ibuprofen (±standard deviation) (n = 3).

Each structure is given as a SMILES string.

As usually defined, the Papp A→B is the apparent permeability from the apical to the basolateral side of a cell layer. One may read the bioavailability as the share of a dose that reaches the circulation, judged against a reference dose that is usually intravenous.

For the compound `COc1ccc2c3c1O[C@H]1C(=O)CC[C@@]4(O)[C@@H](C2)N(C)CC[C@]314.Cl` [oxycodone HCl, oxycodone hydrochloride], the “integrity of Caco-2 cell monolayers (TEER)” value with Caco-2 cell monolayers [1] is “did not compromise the integrity”. Moreover, in data set [2] (literature (Leow et al. 1992)), the absolute bioavailability is given as 87%. For the same compound, in data set [3], the pKa result is “about 9”. Besides, the apparent permeability from apical to basolateral (Papp A→B) at 20 min, 0.02 mg/ml came to 15 ± 0.9 ×10⁻⁶ cm/s in data set [4] (ibuprofen 0 mg/ml), 20 ± 0.6 ×10⁻⁶ cm/s in data set [4] (ibuprofen 0.8 mg/ml), 19 ± 0.3 ×10⁻⁶ cm/s in data set [4] (ibuprofen 1.6 mg/ml) and 16 ± 0.7 ×10⁻⁶ cm/s in data set [4] (ibuprofen 3.2 mg/ml). Besides, the Papp A→B at 80 min, 0.02 mg/ml in data set [4] (ibuprofen 0 mg/ml) is 54.2 ± 0.9 ×10⁻⁶ cm/s; in data set [4] (ibuprofen 0.8 mg/ml), 56.9 ± 1.4 ×10⁻⁶ cm/s; in data set [4] (ibuprofen 1.6 mg/ml) it was 55.1 ± 1.3 ×10⁻⁶ cm/s; in data set [4] (ibuprofen 3.2 mg/ml (precipitate)), 50.5 ± 0.5 ×10⁻⁶ cm/s. In addition, the “percentage of transported oxycodone from apical to basolateral compartment” value in the data set on Caco-2 cell monolayers [5] (ibuprofen 0.8 mg/ml) was determined as 20%; with Caco-2 cell monolayers [5] (ibuprofen 1.6 mg/ml), 19%; in the data set on Caco-2 cell monolayers [5] (no ibuprofen), 15%. Moreover, the “transport of oxycodone, effect of ibuprofen” value with Caco-2 cell monolayers [5] (ibuprofen 3.2 mg/ml (precipitating)) was “did not increase the transport”.

For `CC(C)Cc1ccc(C(C)C(=O)O)cc1` (stereo not drawn) [ibuprofen], the “integrity of Caco-2 cell monolayers (TEER)” value in the data set with Caco-2 cell monolayers [1] is “did not compromise the integrity”. In addition, the Papp A→B at 80 min, 0.2 mg/ml in the data set “in vitro” amounted to 56.5 ± 4.3 ×10⁻⁶ cm/s. Also, the bioavailability in data set [2] (literature (Hall et al. 1993)) is on record as ~100%.
